Key:
Experiment in all cases: relative viability (nuclei count vs DMSO), 5 days (fraction); higher = more cells survive
[1] = compound: C1COCCN1CC2=CC(=O)C(=CO2)OCCCCCSC3=C4C=CC(=CC4=NC=C3)C(F)(F)F [EHT 1864] + CCNC(=O)c1noc(-c2cc(C(C)C)c(O)cc2O)c1-c1ccc(CN2CCOCC2)cc1 [Luminespib] (partner 0.01 µM)
Procedure, shortened: (§1)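 Dosing by pin tool came one day after lung cancer cell lines were seeded in 1536-well plates, using either one drug or a fixed anchor-drug dose plus five library-drug doses (not always all listed) in √10 steps. After 5 days, nuclei were counted on 4× images. Relative viability is treated-well nuclei count divided by vehicle-well nuclei count, and values are medians of duplicate plates.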

[2] = compound: C1COCCN1CC2=CC(=O)C(=CO2)OCCCCCSC3=C4C=CC(=CC4=NC=C3)C(F)(F)F [EHT 1864] + COc1cc2c(Oc3ccc(NC(=O)C4(C(=O)Nc5ccc(F)cc5)CC4)cc3F)ccnc2cc1OCCCN1CCOCC1 [Foretinib] (partner 0.25 µM)
Procedure, shortened: as §1

[3] = compound: C1COCCN1CC2=CC(=O)C(=CO2)OCCCCCSC3=C4C=CC(=CC4=NC=C3)C(F)(F)F [EHT 1864] + Cc1nc(Nc2ncc(C(=O)Nc3c(C)cccc3Cl)s2)cc(N2CCN(CCO)CC2)n1 [Dasatinib] (partner 0.075 µM)
Procedure, shortened: as §1

[4] = compound: C1COCCN1CC2=CC(=O)C(=CO2)OCCCCCSC3=C4C=CC(=CC4=NC=C3)C(F)(F)F [EHT 1864] + Nc1ncn([C@H]2C[C@H](O)[C@@H](CO)O2)c(=O)n1 [Decitabine] (partner 2 µM)
Procedure, shortened: as §1

For ChaGo-K-1, the relative viability ([1]; first compound 0.04 µM) was 0.487, the relative viability ([1]; first compound 0.1265 µM) was 0.604 and the relative viability ([1]; first compound 0.4 µM) was 0.703. For the same cell line, the relative viability ([1]; first compound 1.265 µM) was 0.547, the relative viability ([1]; first compound 4 µM) was 0.559 and the relative viability ([2]; first compound 0.04 µM) was 0.858. For the same cell line, the relative viability ([2]; first compound 0.1265 µM) was 0.888, the relative viability ([2]; first compound 0.4 µM) was 0.809 and the relative viability ([2]; first compound 1.265 µM) was 0.895. For the same cell line, the relative viability ([2]; first compound 4 µM) was 0.814, the relative viability ([3]; first compound 0.04 µM) was 0.587 and the relative viability ([3]; first compound 0.1265 µM) was 0.551. It also gave a relative viability ([3]; first compound 0.4 µM) of 0.619, a relative viability ([3]; first compound 1.265 µM) of 0.602 and a relative viability ([3]; first compound 4 µM) of 0.616. It also gave a relative viability ([4]; first compound 0.04 µM) of 0.584, a relative viability ([4]; first compound 0.1265 µM) of 0.501 and a relative viability ([4]; first compound 0.4 µM) of 0.527. For the same cell line, the relative viability ([4]; first compound 1.265 µM) was 0.477 and the relative viability ([4]; first compound 4 µM) was 0.531.
EBC-1 was tested, and the relative viability ([2]; first compound 0.04 µM) was 0.0988, the relative viability ([2]; first compound 0.1265 µM) was 0.119 and the relative viability ([2]; first compound 0.4 µM) was 0.116. It also gave a relative viability ([2]; first compound 1.265 µM) of 0.115 and a relative viability ([2]; first compound 4 µM) of 0.0993.
With EKVX the relative viability ([1]; first compound 0.04 µM) was 0.9, the relative viability ([1]; first compound 0.1265 µM) was 0.871 and the relative viability ([1]; first compound 0.4 µM) was 0.834. It also gave a relative viability ([1]; first compound 1.265 µM) of 0.836, a relative viability ([1]; first compound 4 µM) of 0.885 and a relative viability ([2]; first compound 0.04 µM) of 1.09. It also gave a relative viability ([2]; first compound 0.1265 µM) of 0.758, a relative viability ([2]; first compound 0.4 µM) of 0.715 and a relative viability ([2]; first compound 1.265 µM) of 0.661. It also gave a relative viability ([2]; first compound 4 µM) of 0.592, a relative viability ([3]; first compound 0.04 µM) of 0.631 and a relative viability ([3]; first compound 0.1265 µM) of 0.436. It also gave a relative viability ([3]; first compound 0.4 µM) of 0.536, a relative viability ([3]; first compound 1.265 µM) of 0.51 and a relative viability ([3]; first compound 4 µM) of 0.58. For the same cell line, the relative viability ([4]; first compound 0.04 µM) was 0.372, the relative viability ([4]; first compound 0.1265 µM) was 0.333 and the relative viability ([4]; first compound 0.4 µM) was 0.317. It also gave a relative viability ([4]; first compound 1.265 µM) of 0.329 and a relative viability ([4]; first compound 4 µM) of 0.381.
For EMC-BAC-2, the relative viability ([1]; first compound 0.04 µM) was 1.12, the relative viability ([1]; first compound 0.1265 µM) was 1.09 and the relative viability ([1]; first compound 0.4 µM) was 1.16. The relative viability ([1]; first compound 1.265 µM) was 1.12, the relative viability ([1]; first compound 4 µM) was 1.05 and the relative viability ([2]; first compound 0.04 µM) was 0.967. For the same cell line, the relative viability ([2]; first compound 0.1265 µM) was 1.06, the relative viability ([2]; first compound 0.4 µM) was 1.01 and the relative viability ([2]; first compound 1.265 µM) was 1.01. It also gave a relative viability ([2]; first compound 4 µM) of 0.951, a relative viability ([3]; first compound 0.04 µM) of 0.359 and a relative viability ([3]; first compound 0.1265 µM) of 0.342. It also gave a relative viability ([3]; first compound 0.4 µM) of 0.338, a relative viability ([3]; first compound 1.265 µM) of 0.276 and a relative viability ([3]; first compound 4 µM) of 0.325. For the same cell line, the relative viability ([4]; first compound 0.04 µM) was 0.857, the relative viability ([4]; first compound 0.1265 µM) was 0.935 and the relative viability ([4]; first compound 0.4 µM) was 1. The relative viability ([4]; first compound 1.265 µM) was 1.04 and the relative viability ([4]; first compound 4 µM) was 0.997.
With EPLC-272H the relative viability ([1]; first compound 0.04 µM) was 0.347, the relative viability ([1]; first compound 0.1265 µM) was 0.365 and the relative viability ([1]; first compound 0.4 µM) was 0.266. For the same cell line, the relative viability ([1]; first compound 1.265 µM) was 0.521, the relative viability ([1]; first compound 4 µM) was 0.606 and the relative viability ([2]; first compound 0.04 µM) was 0.684. It also gave a relative viability ([2]; first compound 0.1265 µM) of 0.575, a relative viability ([2]; first compound 0.4 µM) of 0.694 and a relative viability ([2]; first compound 1.265 µM) of 0.887. It also gave a relative viability ([2]; first compound 4 µM) of 0.875, a relative viability ([3]; first compound 0.04 µM) of 0.359 and a relative viability ([3]; first compound 0.1265 µM) of 0.327. The relative viability ([3]; first compound 0.4 µM) was 0.395, the relative viability ([3]; first compound 1.265 µM) was 0.452 and the relative viability ([3]; first compound 4 µM) was 0.275. For the same cell line, the relative viability ([4]; first compound 0.04 µM) was 0.406, the relative viability ([4]; first compound 0.1265 µM) was 0.359 and the relative viability ([4]; first compound 0.4 µM) was 0.405. It also gave a relative viability ([4]; first compound 1.265 µM) of 0.355 and a relative viability ([4]; first compound 4 µM) of 0.396.
For H3255, the relative viability ([1]; first compound 0.04 µM) was 0.895, the relative viability ([1]; first compound 0.1265 µM) was 0.799 and the relative viability ([1]; first compound 0.4 µM) was 1.01. The relative viability ([1]; first compound 1.265 µM) was 0.917, the relative viability ([1]; first compound 4 µM) was 1.07 and the relative viability ([2]; first compound 0.04 µM) was 0.79. It also gave a relative viability ([2]; first compound 0.1265 µM) of 0.818, a relative viability ([2]; first compound 0.4 µM) of 0.903 and a relative viability ([2]; first compound 1.265 µM) of 0.844. For the same cell line, the relative viability ([2]; first compound 4 µM) was 0.978, the relative viability ([3]; first compound 0.04 µM) was 0.437 and the relative viability ([3]; first compound 0.1265 µM) was 0.391. For the same cell line, the relative viability ([3]; first compound 0.4 µM) was 0.346, the relative viability ([3]; first compound 1.265 µM) was 0.344 and the relative viability ([3]; first compound 4 µM) was 0.343. The relative viability ([4]; first compound 0.04 µM) was 0.585, the relative viability ([4]; first compound 0.1265 µM) was 0.548 and the relative viability ([4]; first compound 1.265 µM) was 0.573. The relative viability ([4]; first compound 4 µM) was 0.677.
With HARA the relative viability ([1]; first compound 0.04 µM) was 0.738, the relative viability ([1]; first compound 0.1265 µM) was 0.68 and the relative viability ([1]; first compound 0.4 µM) was 0.75. For the same cell line, the relative viability ([1]; first compound 1.265 µM) was 0.644, the relative viability ([1]; first compound 4 µM) was 0.719 and the relative viability ([2]; first compound 0.04 µM) was 0.889. For the same cell line, the relative viability ([2]; first compound 0.1265 µM) was 0.838, the relative viability ([2]; first compound 0.4 µM) was 0.991 and the relative viability ([2]; first compound 1.265 µM) was 0.932. For the same cell line, the relative viability ([2]; first compound 4 µM) was 0.98, the relative viability ([3]; first compound 0.04 µM) was 0.236 and the relative viability ([3]; first compound 0.1265 µM) was 0.246. For the same cell line, the relative viability ([3]; first compound 0.4 µM) was 0.207, the relative viability ([3]; first compound 1.265 µM) was 0.19 and the relative viability ([3]; first compound 4 µM) was 0.255. For the same cell line, the relative viability ([4]; first compound 0.04 µM) was 0.532, the relative viability ([4]; first compound 0.4 µM) was 0.563 and the relative viability ([4]; first compound 1.265 µM) was 0.564. It also gave a relative viability ([4]; first compound 4 µM) of 0.425.
HCC-15 showed a relative viability ([1]; first compound 0.04 µM) of 0.451, a relative viability ([1]; first compound 0.4 µM) of 0.24 and a relative viability ([1]; first compound 1.265 µM) of 0.369. It also gave a relative viability ([1]; first compound 4 µM) of 0.251, a relative viability ([2]; first compound 0.04 µM) of 0.976 and a relative viability ([2]; first compound 0.4 µM) of 0.994. For the same cell line, the relative viability ([2]; first compound 1.265 µM) was 0.882, the relative viability ([2]; first compound 4 µM) was 1.01 and the relative viability ([3]; first compound 0.04 µM) was 0.56. It also gave a relative viability ([3]; first compound 0.4 µM) of 0.623, a relative viability ([3]; first compound 1.265 µM) of 0.618 and a relative viability ([3]; first compound 4 µM) of 0.543. It also gave a relative viability ([4]; first compound 0.04 µM) of 0.735, a relative viability ([4]; first compound 0.4 µM) of 0.62 and a relative viability ([4]; first compound 1.265 µM) of 0.624. The relative viability ([4]; first compound 4 µM) was 0.624.
With HCC-44 the relative viability ([1]; first compound 0.04 µM) was 1.04, the relative viability ([1]; first compound 0.1265 µM) was 0.906 and the relative viability ([1]; first compound 0.4 µM) was 0.924. The relative viability ([1]; first compound 1.265 µM) was 1.02, the relative viability ([1]; first compound 4 µM) was 1.33 and the relative viability ([4]; first compound 0.04 µM) was 0.951. For the same cell line, the relative viability ([4]; first compound 0.1265 µM) was 0.797, the relative viability ([4]; first compound 0.4 µM) was 0.914 and the relative viability ([4]; first compound 1.265 µM) was 0.981. For the same cell line, the relative viability ([4]; first compound 4 µM) was 0.987.
HCC-78 was tested, and the relative viability ([2]; first compound 0.04 µM) was 0.578, the relative viability ([2]; first compound 0.1265 µM) was 0.474 and the relative viability ([2]; first compound 0.4 µM) was 0.538. It also gave a relative viability ([2]; first compound 1.265 µM) of 0.606, a relative viability ([2]; first compound 4 µM) of 0.633 and a relative viability ([3]; first compound 0.04 µM) of 0.365. It also gave a relative viability ([3]; first compound 0.1265 µM) of 0.367, a relative viability ([3]; first compound 0.4 µM) of 0.357 and a relative viability ([3]; first compound 1.265 µM) of 0.338. The relative viability ([3]; first compound 4 µM) was 0.337, the relative viability ([4]; first compound 0.04 µM) was 0.735 and the relative viability ([4]; first compound 0.1265 µM) was 0.726. The relative viability ([4]; first compound 0.4 µM) was 0.577, the relative viability ([4]; first compound 1.265 µM) was 0.713 and the relative viability ([4]; first compound 4 µM) was 0.789.
